Laboratory results taken from ChEMBL document CHEMBL2203210, “SAR and in vivo evaluation of 4-aryl-2-aminoalkylpyrimidines as potent and selective Janus kinase 2 (JAK2) inhibitors” (Bioorg Med Chem Lett, 2012).

Tests used:
[1] = Cmax in CD rat at 5 mg/kg, po; format: ADME, organism-based; design: dose 5 mg/kg, route oral; settings: in vivo
Canis familiaris [2] = test: Volume of distribution in Beagle dog at 3 mg/kg, po and iv; format: ADME, organism-based, Canis lupus familiaris; design: dose 3 mg/kg, route oral; settings: in vivo
[3] = target: Inhibitor of nuclear factor kappa-B kinase subunit beta (Homo sapiens, UniProt O14920); test: Inhibition of IKKbeta
Inhibitor of nuclear factor kappa-B kinase subunit beta, sequence (O14920 whole entry): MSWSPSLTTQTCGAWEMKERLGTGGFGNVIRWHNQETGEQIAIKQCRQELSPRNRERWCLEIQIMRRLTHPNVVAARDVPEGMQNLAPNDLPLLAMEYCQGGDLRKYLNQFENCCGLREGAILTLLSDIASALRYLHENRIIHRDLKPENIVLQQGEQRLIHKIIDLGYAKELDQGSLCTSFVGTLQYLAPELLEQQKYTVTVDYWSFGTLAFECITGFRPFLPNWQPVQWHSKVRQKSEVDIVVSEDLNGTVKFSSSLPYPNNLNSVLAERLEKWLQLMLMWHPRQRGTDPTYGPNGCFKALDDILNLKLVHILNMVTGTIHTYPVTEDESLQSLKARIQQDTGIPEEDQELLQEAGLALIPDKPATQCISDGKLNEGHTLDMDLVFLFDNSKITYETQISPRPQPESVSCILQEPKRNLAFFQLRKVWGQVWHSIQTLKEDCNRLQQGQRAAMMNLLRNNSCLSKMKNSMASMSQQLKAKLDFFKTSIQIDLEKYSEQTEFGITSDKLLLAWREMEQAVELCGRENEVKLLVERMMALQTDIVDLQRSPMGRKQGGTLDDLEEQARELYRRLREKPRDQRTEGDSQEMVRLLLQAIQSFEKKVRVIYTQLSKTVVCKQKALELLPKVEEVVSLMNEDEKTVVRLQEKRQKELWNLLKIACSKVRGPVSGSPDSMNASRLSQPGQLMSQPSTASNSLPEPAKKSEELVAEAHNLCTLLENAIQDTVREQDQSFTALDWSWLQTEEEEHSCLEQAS

Canis familiaris [4] = test: Dose normalized AUC in Beagle dog at 3 mg/kg, po; format: ADME, organism-based, Canis lupus familiaris; design: dose 3 mg/kg, route oral; settings: in vivo
Cytochrome P450 2C9 = Cytochrome P450 2C9 (Homo sapiens, UniProt P11712); test: Inhibition of CYP2C9; format: ADME
Cytochrome P450 2C9, sequence (P11712 whole entry): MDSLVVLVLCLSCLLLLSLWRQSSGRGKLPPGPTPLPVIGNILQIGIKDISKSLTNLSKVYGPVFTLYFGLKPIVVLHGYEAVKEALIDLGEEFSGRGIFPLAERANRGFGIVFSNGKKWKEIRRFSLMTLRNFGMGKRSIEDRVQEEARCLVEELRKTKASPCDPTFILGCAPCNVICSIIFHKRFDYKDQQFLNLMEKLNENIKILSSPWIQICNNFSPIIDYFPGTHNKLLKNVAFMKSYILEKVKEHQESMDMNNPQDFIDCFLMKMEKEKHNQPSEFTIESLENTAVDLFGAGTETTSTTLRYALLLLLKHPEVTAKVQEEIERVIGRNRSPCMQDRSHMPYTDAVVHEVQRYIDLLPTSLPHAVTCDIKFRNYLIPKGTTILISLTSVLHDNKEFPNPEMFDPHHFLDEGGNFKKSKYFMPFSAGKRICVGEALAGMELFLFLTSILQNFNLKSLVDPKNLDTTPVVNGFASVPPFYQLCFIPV

[5] = Half life in Beagle dog at 3 mg/kg, iv; format: ADME, organism-based, Canis lupus familiaris; design: dose 3 mg/kg, route intravenous; settings: in vivo
Cynomolgus monkey [6] = test: Dose normalized AUC in cynomolgus monkey at 3 mg/kg, iv; format: ADME, organism-based, Macaca fascicularis; design: dose 3 mg/kg, route intravenous; settings: in vivo
[7] = Cmax in Beagle dog at 3 mg/kg, po; format: ADME, organism-based, Canis lupus familiaris; design: dose 3 mg/kg, route oral; settings: in vivo
Rattus norvegicus = test: Dose normalized AUC in CD rat at 5 mg/kg, po; format: ADME, organism-based; design: dose 5 mg/kg, route oral; settings: in vivo
[8] = Plasma concentration in nude mouse xenografted with HEL 92.1.7 cells at 100 mg/kg, po after 4 hrs; format: ADME, organism-based; design: dose 100 mg/kg, route oral
[9] = Half life in athymic nude mouse at 10 mg/kg, iv; format: ADME, organism-based; design: dose 10 mg/kg, route intravenous; settings: in vivo
[10] = target: Vascular endothelial growth factor receptor 1 (Homo sapiens, UniProt P17948); test: Inhibition of FLT1
Vascular endothelial growth factor receptor 1, sequence (P17948 whole entry): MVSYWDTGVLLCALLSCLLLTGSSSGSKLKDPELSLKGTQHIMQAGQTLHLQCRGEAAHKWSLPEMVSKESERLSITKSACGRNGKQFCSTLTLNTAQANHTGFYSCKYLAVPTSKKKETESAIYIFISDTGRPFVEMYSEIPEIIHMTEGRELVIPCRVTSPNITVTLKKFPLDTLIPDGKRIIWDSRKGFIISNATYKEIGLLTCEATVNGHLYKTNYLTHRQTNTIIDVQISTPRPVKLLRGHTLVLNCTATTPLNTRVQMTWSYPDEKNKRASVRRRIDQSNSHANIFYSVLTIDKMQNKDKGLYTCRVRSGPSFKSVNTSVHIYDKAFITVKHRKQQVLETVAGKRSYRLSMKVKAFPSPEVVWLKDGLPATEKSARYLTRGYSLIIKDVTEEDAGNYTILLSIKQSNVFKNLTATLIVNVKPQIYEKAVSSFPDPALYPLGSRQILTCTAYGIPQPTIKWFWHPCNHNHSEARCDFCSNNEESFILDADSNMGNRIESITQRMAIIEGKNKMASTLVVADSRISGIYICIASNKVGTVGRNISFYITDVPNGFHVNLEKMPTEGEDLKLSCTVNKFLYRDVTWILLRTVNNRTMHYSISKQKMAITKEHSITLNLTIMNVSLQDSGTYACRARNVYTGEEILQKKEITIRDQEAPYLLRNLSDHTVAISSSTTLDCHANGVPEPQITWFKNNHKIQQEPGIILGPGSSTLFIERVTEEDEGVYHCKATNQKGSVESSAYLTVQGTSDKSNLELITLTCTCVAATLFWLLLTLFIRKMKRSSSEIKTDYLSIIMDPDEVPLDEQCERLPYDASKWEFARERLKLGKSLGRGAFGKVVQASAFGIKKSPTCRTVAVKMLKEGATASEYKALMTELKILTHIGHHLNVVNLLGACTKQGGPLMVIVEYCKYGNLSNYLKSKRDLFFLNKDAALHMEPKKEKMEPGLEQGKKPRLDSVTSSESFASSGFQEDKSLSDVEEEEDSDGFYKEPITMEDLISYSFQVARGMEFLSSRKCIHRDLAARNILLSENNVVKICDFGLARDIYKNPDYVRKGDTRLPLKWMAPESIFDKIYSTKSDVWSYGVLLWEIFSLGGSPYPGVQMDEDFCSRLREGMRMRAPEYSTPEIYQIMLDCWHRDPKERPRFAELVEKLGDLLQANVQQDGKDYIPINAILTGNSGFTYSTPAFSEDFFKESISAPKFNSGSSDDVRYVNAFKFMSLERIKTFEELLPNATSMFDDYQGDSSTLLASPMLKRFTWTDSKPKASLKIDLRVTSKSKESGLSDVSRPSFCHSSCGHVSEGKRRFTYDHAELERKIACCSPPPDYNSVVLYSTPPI

[11] = Cmax in athymic nude mouse at 10 mg/kg, iv; format: ADME, organism-based; design: dose 10 mg/kg, route intravenous; settings: in vivo
Cynomolgus monkey [12] = test: Dose normalized AUC in cynomolgus monkey at 3 mg/kg, po; format: ADME, organism-based, Macaca fascicularis; design: dose 3 mg/kg, route oral; settings: in vivo
[13] = target: Voltage-gated inwardly rectifying potassium channel KCNH2 (Homo sapiens, UniProt Q12809); test: Inhibition of human ERG
Voltage-gated inwardly rectifying potassium channel KCNH2, sequence (Q12809 whole entry): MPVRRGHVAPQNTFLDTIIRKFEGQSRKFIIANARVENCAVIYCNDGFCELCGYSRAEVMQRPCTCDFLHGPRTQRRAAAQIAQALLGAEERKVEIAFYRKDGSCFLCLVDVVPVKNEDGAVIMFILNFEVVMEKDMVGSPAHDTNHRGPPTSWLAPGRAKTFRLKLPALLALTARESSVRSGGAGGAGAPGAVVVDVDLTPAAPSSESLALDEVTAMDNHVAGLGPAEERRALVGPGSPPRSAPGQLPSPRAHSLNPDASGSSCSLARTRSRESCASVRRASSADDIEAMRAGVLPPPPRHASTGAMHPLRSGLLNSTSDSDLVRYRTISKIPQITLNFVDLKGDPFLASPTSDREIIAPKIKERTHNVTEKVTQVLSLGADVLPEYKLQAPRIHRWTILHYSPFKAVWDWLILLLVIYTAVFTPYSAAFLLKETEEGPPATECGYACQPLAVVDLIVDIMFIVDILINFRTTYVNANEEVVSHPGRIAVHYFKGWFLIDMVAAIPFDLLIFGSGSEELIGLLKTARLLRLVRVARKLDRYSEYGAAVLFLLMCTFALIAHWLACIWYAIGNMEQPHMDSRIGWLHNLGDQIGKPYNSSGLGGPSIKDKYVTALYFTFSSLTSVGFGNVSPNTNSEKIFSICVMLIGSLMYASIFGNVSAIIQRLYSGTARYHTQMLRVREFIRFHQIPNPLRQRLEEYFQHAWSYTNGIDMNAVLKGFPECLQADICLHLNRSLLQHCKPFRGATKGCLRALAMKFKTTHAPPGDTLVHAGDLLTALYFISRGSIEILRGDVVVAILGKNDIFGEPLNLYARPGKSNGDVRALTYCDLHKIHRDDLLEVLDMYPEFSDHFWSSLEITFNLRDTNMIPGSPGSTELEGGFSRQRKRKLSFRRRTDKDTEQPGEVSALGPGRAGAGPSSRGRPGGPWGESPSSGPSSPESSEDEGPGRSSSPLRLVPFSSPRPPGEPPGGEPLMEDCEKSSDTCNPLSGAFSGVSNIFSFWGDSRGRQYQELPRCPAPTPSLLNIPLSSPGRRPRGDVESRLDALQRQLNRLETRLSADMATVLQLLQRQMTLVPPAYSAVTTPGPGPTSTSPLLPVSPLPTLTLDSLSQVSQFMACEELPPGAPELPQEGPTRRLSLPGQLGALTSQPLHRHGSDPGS

[14] = target: Mast/stem cell growth factor receptor Kit (Homo sapiens, UniProt P10721); test: Inhibition of c-KIT
[15] = Half life in CD rat at 5 mg/kg, po; format: ADME, organism-based; design: dose 5 mg/kg, route oral; settings: in vivo
HEL [16] = test: Anitumour activity against HEL 92.1.7 cells xenografted in nude mouse assessed as tumor growth inhibition at 300 mg/kg, po bid administered up to 14 days relative to vehicle-treated control; format: functional, Homo sapiens; settings: 336 h, read-out: TGI
[17] = Drug uptake in nude mouse xenografted with HEL 92.1.7 cells at 100 mg/kg, po after 4 hrs; format: ADME, organism-based; design: dose 100 mg/kg, route oral; settings: in vivo, read-out: Drug uptake
[18] = Half life in athymic nude mouse at 10 mg/kg, po; format: ADME, organism-based; design: dose 10 mg/kg, route oral; settings: in vivo
[19] = Drug uptake in nude mouse xenografted with HEL 92.1.7 cells at 30 mg/kg, po after 4 hrs; format: ADME, organism-based; design: dose 30 mg/kg, route oral; settings: in vivo, read-out: Drug uptake
HEL [20] = test: Anitumour activity against HEL 92.1.7 cells xenografted in nude mouse assessed as tumor growth inhibition at 200 mg/kg, po bid administered up to 14 days relative to vehicle-treated control; format: functional, Homo sapiens; settings: 336 h, read-out: TGI
Mus musculus [21] = test: Inhibition of JAK2 in HEL 92.1.7 cells xenografted in nude mouse assessed as inhibition of STAT1 phosphorylation at 300 mg/kg, po after 4 hrs relative to vehicle-treated control; format: functional
Mus musculus [22] = test: Dose normalized AUC in athymic nude mouse at 10 mg/kg, iv; format: ADME, organism-based; design: dose 10 mg/kg, route intravenous; settings: in vivo
Mus musculus [23] = test: Dose normalized AUC in athymic nude mouse at 10 mg/kg, po; format: ADME, organism-based; design: dose 10 mg/kg, route oral; settings: in vivo
[24] = Oral bioavailability in cynomolgus monkey at 3 mg/kg; format: ADME, organism-based, Macaca fascicularis; settings: in vivo
[25] = Drug uptake in nude mouse xenografted with HEL 92.1.7 cells at 300 mg/kg, po after 4 hrs; format: ADME, organism-based; design: dose 300 mg/kg, route oral; settings: in vivo, read-out: Drug uptake
[26] = target: Vascular endothelial growth factor receptor 2 (Homo sapiens, UniProt P35968); test: Inhibition of KDR
Vascular endothelial growth factor receptor 2, sequence (P35968 whole entry): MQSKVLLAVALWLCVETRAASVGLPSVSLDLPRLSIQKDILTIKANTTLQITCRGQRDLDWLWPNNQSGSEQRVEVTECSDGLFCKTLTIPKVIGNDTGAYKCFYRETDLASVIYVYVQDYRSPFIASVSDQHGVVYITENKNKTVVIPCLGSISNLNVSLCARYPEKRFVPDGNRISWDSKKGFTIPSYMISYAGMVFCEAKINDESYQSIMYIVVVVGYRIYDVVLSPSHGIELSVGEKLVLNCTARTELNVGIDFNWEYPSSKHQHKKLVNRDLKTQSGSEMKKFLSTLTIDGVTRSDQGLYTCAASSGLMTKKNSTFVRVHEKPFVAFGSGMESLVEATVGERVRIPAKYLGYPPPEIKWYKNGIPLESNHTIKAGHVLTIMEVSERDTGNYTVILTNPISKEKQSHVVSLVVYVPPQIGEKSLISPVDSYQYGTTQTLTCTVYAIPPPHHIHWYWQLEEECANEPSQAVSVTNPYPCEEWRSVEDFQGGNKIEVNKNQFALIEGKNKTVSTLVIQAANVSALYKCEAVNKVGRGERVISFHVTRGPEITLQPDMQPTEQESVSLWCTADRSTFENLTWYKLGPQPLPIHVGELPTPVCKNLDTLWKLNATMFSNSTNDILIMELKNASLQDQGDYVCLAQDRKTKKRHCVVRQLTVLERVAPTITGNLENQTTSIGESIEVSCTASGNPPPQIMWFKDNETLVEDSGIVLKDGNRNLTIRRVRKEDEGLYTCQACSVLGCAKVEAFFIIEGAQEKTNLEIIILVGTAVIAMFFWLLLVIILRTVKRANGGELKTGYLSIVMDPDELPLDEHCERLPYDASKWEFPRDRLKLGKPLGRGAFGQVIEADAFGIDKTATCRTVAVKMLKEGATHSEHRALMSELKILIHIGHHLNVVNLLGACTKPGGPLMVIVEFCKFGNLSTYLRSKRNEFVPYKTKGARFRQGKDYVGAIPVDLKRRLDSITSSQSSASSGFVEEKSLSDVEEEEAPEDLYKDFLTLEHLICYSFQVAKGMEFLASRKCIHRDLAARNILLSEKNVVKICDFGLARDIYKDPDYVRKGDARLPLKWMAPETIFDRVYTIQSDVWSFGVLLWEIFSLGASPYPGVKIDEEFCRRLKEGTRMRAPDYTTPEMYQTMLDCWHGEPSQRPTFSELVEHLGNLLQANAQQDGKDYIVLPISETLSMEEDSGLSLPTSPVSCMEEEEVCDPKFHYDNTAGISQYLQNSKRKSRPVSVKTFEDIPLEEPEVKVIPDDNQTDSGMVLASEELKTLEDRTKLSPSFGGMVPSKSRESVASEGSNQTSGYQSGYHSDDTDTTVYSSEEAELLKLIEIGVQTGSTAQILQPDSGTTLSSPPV

[27] = target: Ribosomal protein S6 kinase beta-1 (Homo sapiens, UniProt P23443); test: Inhibition of P70S6K
[28] = target: Tyrosine-protein kinase JAK1 (Homo sapiens, UniProt P23458); test: Inhibition of JAK1
[29] = Cmax in Beagle dog at 3 mg/kg, iv; format: ADME, organism-based, Canis lupus familiaris; design: dose 3 mg/kg, route intravenous; settings: in vivo
Mus musculus [30] = test: Inhibition of JAK2 in HEL 92.1.7 cells xenografted in nude mouse assessed as inhibition of STAT3 phosphorylation at 30 mg/kg, po after 4 hrs relative to vehicle-treated control; format: functional
[31] = Cmax in cynomolgus monkey at 3 mg/kg, po; format: ADME, organism-based, Macaca fascicularis; design: dose 3 mg/kg, route oral; settings: in vivo

O=C(Nc1ccc(-c2ccnc(Nc3ccc(N4CCOCC4)cc3)n2)cc1)[C@H]1CCCN1 gave a Cmax [1] of 3.53 µM, a Vd (Canis familiaris [2]) of 13.4 L/kg and an IC50 [3] of 375 nM. The AUC/dose (Canis familiaris [4]) was 0.68 µM·kg·h/mg, the INH (Cytochrome P450 2C9) was “>= 20 uM” and the half-life [5] was 6 h. For the same molecule, the AUC/dose (Cynomolgus monkey [6]) was 1.76 µM·kg·h/mg, the Cmax [7] was 0.17 µM and the AUC/dose (Rattus norvegicus) was 8.54 µM·kg·h/mg. The concentration at 4 h [8] was 5.35 µM, the half-life [9] was 1.13 h and the IC50 [10] was 910 nM. It also gave a Cmax [11] of 5.24 µM, an AUC/dose (Cynomolgus monkey [12]) of 1.2 µM·kg·h/mg and an INH [13] of 16 µM. The IC50 [14] was 226 nM, the half-life [15] was 3.23 h and the inhibition in vivo at 300 mg/kg (HEL [16]) was 70%. It also gave a concentration at 4 h [17] of 240 µM, a half-life [18] of 1.94 h and a concentration at 4 h [19] of 2 µM. For the same molecule, the inhibition in vivo at 200 mg/kg (HEL [20]) was 60%, the inhibition in vivo at 300 mg/kg (Mus musculus [21]) was 88% and the AUC/dose (Mus musculus [22]) was 0.42 µM·kg·h/mg. It also gave an AUC/dose (Mus musculus [23]) of 0.21 µM·kg·h/mg, a bioavailability [24] of 68.6% and a concentration at 4 h [25] of 62.4 µM. It also gave an IC50 [26] of 484 nM, an IC50 [27] of 314 nM and an IC50 [28] of 134 nM. The Cmax [29] was 0.44 µM, the inhibition in vivo at 30 mg/kg (Mus musculus [30]) was 9% and the Cmax [31] was 0.49 µM.
